Each structure is given as a SMILES string. *1 amine or outer side, *2 acyl side, *3 side chain or, on linkers, in order; H or OH if unused. Where a SMILES comes first, the peptide text is derived from it. Bridges are numbered along the chain shown (N, C = ends). [ ]: non-standard residue; d: D form. Bip = N[C@@H](Cc1ccc(-c2ccccc2)cc1)C(=O)O; NMeR = CN[C@@H](CCCNC(=N)N)C(=O)O; β3hE = N[C@@H](CCC(=O)O)CC(=O)O; X1 = O=C(c1ccccc1C[*:2])[*:1]; Pen = CC(C)(S)[C@H](N)C(=O)O

The text below walks through data of patent US20260217767A1, “NOVEL A4B7 THIOETHER PEPTIDE DIMER ANTAGONISTS” (Protagonist Therapeutics, Inc., priority 2014, published 2026).

For this experiment, the target named is T1, RPMI 8866 cells (Homo sapiens, UniProt P13612+P26010).
T1 sequence (P13612 34-1032): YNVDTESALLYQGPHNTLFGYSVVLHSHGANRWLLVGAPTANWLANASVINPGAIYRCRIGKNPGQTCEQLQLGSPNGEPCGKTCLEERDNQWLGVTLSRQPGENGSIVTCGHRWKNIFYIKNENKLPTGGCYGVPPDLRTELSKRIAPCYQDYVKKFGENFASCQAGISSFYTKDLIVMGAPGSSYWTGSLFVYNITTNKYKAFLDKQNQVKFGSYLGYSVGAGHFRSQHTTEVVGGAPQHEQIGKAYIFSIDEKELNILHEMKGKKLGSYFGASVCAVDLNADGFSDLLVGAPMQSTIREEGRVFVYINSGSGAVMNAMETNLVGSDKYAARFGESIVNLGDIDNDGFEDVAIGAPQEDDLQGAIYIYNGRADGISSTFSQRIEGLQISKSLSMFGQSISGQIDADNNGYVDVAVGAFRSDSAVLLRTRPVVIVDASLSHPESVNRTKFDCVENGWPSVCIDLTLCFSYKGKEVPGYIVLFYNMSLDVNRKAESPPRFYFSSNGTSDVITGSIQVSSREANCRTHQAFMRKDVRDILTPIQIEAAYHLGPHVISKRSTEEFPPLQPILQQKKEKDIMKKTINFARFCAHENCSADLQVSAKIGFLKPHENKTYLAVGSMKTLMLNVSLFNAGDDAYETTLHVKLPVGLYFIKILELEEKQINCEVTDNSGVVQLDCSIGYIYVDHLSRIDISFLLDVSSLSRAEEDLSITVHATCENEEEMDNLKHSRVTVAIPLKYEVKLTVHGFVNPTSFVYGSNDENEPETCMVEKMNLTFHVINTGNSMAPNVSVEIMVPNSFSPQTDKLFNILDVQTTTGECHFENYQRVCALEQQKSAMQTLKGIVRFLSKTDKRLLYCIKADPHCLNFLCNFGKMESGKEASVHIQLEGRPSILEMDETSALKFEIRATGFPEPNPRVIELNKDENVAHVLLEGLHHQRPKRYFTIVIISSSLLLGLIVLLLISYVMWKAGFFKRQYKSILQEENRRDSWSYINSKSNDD
T1 sequence (P26010 20-798): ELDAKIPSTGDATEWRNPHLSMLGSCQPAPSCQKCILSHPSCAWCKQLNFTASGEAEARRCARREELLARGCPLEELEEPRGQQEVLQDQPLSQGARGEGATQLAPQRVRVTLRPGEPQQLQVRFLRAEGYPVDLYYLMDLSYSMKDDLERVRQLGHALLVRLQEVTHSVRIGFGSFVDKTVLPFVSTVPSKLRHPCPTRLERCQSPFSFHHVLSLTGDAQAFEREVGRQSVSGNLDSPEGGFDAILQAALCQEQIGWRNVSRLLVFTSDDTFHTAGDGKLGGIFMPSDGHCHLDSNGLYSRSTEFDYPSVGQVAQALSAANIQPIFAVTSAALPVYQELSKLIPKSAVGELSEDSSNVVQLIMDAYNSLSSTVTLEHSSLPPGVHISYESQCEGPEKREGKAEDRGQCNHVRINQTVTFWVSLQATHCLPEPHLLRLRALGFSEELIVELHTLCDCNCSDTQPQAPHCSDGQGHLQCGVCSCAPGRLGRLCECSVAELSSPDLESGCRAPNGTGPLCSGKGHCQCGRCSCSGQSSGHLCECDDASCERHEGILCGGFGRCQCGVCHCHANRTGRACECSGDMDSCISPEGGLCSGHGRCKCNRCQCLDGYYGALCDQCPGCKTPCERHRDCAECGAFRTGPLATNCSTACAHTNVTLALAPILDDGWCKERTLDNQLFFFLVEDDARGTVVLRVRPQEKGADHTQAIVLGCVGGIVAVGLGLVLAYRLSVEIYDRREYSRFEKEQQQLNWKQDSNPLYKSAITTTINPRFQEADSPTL
The experiment in a line: α4β7-MAdCAM Cell Adhesion Assay. In kind it is cell-based. As to conditions: thioether monomer peptides, Table 6; read-out: Cell-Adhesion A4B7. Summed up: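 Peptide inhibition of adhesion measured with MAdCAM-1/Fc chimera immobilised at 200 ng/well and MnCl2-activated (1 mM) RPMI 8866 cells, 30-45 min at 37° C. Adherent cells remaining after three washes detected by MTT reduction at 570 nm, corrected for no-cell wells, giving dose response.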
`CC(C)C[C@@H]1NC(=O)[C@H]([C@@H](C)O)NC(=O)[C@H](CC(=O)O)NC(=O)[C@H](CO)NC(=O)[C@H](CCCNC(=N)N)N(C)C(=O)c2ccccc2CSC(C)(C)[C@@H](C(=O)N[C@@H](Cc2c[nH]c3ccccc23)C(=O)N[C@H](CCC(=O)O)C(=O)N[C@@H](CO)C(N)=O)NC1=O` [compound 100] (HELM PEPTIDE1{[meR].S.D.T.L.[Pen].W.[dE].S.[am]}|CHEM1{[O=C(c1ccccc1C[*:2])[*:1]]}$PEPTIDE1,CHEM1,1:R1-1:R1|PEPTIDE1,CHEM1,6:R3-1:R2$$$V2.0): the IC50 lay in the range of 25 to 100 nM.
In the case of `CC(C)C[C@@H]1NC(=O)[C@H]([C@@H](C)O)NC(=O)[C@H](CC(=O)O)NC(=O)[C@H](CO)NC(=O)[C@H](CCCNC(=N)N)N(C)C(=O)c2ccccc2CSC(C)(C)[C@@H](C(=O)N[C@@H](Cc2c[nH]c3ccccc23)C(=O)N[C@H](CCC(=O)O)C(=O)N[C@@H](Cc2ccccc2)C(N)=O)NC1=O` [compound 101] (HELM PEPTIDE1{[meR].S.D.T.L.[Pen].W.[dE].F.[am]}|CHEM1{[O=C(c1ccccc1C[*:2])[*:1]]}$PEPTIDE1,CHEM1,1:R1-1:R1|PEPTIDE1,CHEM1,6:R3-1:R2$$$V2.0), the IC50 lay in the range of 100 to 1000 nM.
In the case of `CC(C)C[C@@H]1NC(=O)[C@H]([C@@H](C)O)NC(=O)[C@H](CC(=O)O)NC(=O)[C@H](CO)NC(=O)[C@H](CCCNC(=N)N)N(C)C(=O)c2ccccc2CSC(C)(C)[C@@H](C(=O)N[C@@H](Cc2c[nH]c3ccccc23)C(=O)N[C@H](CCC(=O)O)C(=O)N[C@@H](Cc2c[nH]cn2)C(N)=O)NC1=O` [compound 102] (HELM PEPTIDE1{[meR].S.D.T.L.[Pen].W.[dE].H.[am]}|CHEM1{[O=C(c1ccccc1C[*:2])[*:1]]}$PEPTIDE1,CHEM1,1:R1-1:R1|PEPTIDE1,CHEM1,6:R3-1:R2$$$V2.0) it was 25 to 100 nM; in that of `CC(C)C[C@@H]1NC(=O)[C@H]([C@@H](C)O)NC(=O)[C@H](CC(=O)O)NC(=O)[C@H](CO)NC(=O)[C@H](CCCNC(=N)N)N(C)C(=O)c2ccccc2CSC(C)(C)[C@@H](C(=O)N[C@@H](Cc2c[nH]c3ccccc23)C(=O)N[C@H](CCC(=O)O)C(=O)N[C@@H](Cc2ccc(O)cc2)C(N)=O)NC1=O` [compound 104] (HELM PEPTIDE1{[meR].S.D.T.L.[Pen].W.[dE].Y.[am]}|CHEM1{[O=C(c1ccccc1C[*:2])[*:1]]}$PEPTIDE1,CHEM1,1:R1-1:R1|PEPTIDE1,CHEM1,6:R3-1:R2$$$V2.0), 25 to 100 nM; in that of `CC(C)C[C@@H]1NC(=O)[C@H]([C@@H](C)O)NC(=O)[C@H](CC(=O)O)NC(=O)[C@H](CO)NC(=O)[C@H](CCCNC(=N)N)N(C)C(=O)c2ccccc2CSC(C)(C)[C@@H](C(=O)N[C@@H](Cc2c[nH]c3ccccc23)C(=O)N[C@H](CCC(=O)O)C(=O)N[C@H](CO)C(N)=O)NC1=O` [compound 106] (HELM PEPTIDE1{[meR].S.D.T.L.[Pen].W.[dE].[dS].[am]}|CHEM1{[O=C(c1ccccc1C[*:2])[*:1]]}$PEPTIDE1,CHEM1,1:R1-1:R1|PEPTIDE1,CHEM1,6:R3-1:R2$$$V2.0), 25 to 100 nM.
In the case of `CC(C)C[C@@H]1NC(=O)[C@H]([C@@H](C)O)NC(=O)[C@H](CC(=O)O)NC(=O)[C@H](CO)NC(=O)[C@H](CCCNC(=N)N)N(C)C(=O)c2ccccc2CSC(C)(C)[C@@H](C(=O)N[C@@H](Cc2c[nH]c3ccccc23)C(=O)N[C@H](CCC(=O)O)C(=O)N[C@H](Cc2ccccc2)C(N)=O)NC1=O` [compound 107] (HELM PEPTIDE1{[meR].S.D.T.L.[Pen].W.[dE].[dF].[am]}|CHEM1{[O=C(c1ccccc1C[*:2])[*:1]]}$PEPTIDE1,CHEM1,1:R1-1:R1|PEPTIDE1,CHEM1,6:R3-1:R2$$$V2.0) it was 25 to 100 nM; in that of `CC(C)C[C@@H]1NC(=O)[C@H]([C@@H](C)O)NC(=O)[C@H](CC(=O)O)NC(=O)[C@H](CO)NC(=O)[C@H](CCCNC(=N)N)N(C)C(=O)c2ccccc2CSC(C)(C)[C@@H](C(=O)N[C@@H](Cc2c[nH]c3ccccc23)C(=O)N[C@H](CCC(=O)O)C(=O)N[C@H](CCC(=O)O)C(N)=O)NC1=O` [compound 108] (HELM PEPTIDE1{[meR].S.D.T.L.[Pen].W.[dE].[dE].[am]}|CHEM1{[O=C(c1ccccc1C[*:2])[*:1]]}$PEPTIDE1,CHEM1,1:R1-1:R1|PEPTIDE1,CHEM1,6:R3-1:R2$$$V2.0), 25 to 100 nM; in that of `CC(C)C[C@@H]1NC(=O)[C@H]([C@@H](C)O)NC(=O)[C@H](CC(=O)O)NC(=O)[C@H](CO)NC(=O)[C@H](CCCNC(=N)N)N(C)C(=O)c2ccccc2CSC(C)(C)[C@@H](C(=O)N[C@@H](Cc2c[nH]c3ccccc23)C(=O)N[C@H](CCC(=O)O)C(=O)N[C@H](Cc2ccc(O)cc2)C(N)=O)NC1=O` [compound 110] (HELM PEPTIDE1{[meR].S.D.T.L.[Pen].W.[dE].[dY].[am]}|CHEM1{[O=C(c1ccccc1C[*:2])[*:1]]}$PEPTIDE1,CHEM1,1:R1-1:R1|PEPTIDE1,CHEM1,6:R3-1:R2$$$V2.0), 25 to 100 nM.
Next, `CC(C)C[C@@H]1NC(=O)[C@H]([C@@H](C)O)NC(=O)[C@H](CC(=O)O)NC(=O)[C@H](CO)NC(=O)[C@H](CCCNC(=N)N)N(C)C(=O)c2ccccc2CSC(C)(C)[C@@H](C(=O)N[C@@H](Cc2c[nH]c3ccccc23)C(=O)N[C@H](CCC(=O)O)C(=O)N[C@@H](CCC(=O)O)C(N)=O)NC1=O` [compound 113] (HELM PEPTIDE1{[meR].S.D.T.L.[Pen].W.[dE].E.[am]}|CHEM1{[O=C(c1ccccc1C[*:2])[*:1]]}$PEPTIDE1,CHEM1,1:R1-1:R1|PEPTIDE1,CHEM1,6:R3-1:R2$$$V2.0): 25 to 100 nM; `CC(C)C[C@@H]1NC(=O)[C@H]([C@@H](C)O)NC(=O)[C@H](CC(=O)O)NC(=O)[C@H](CO)NC(=O)[C@H](CCCNC(=N)N)N(C)C(=O)c2ccccc2CSC(C)(C)[C@@H](C(=O)N[C@@H](Cc2ccc3ccccc3c2)C(=O)N[C@H](CCC(=O)O)C(N)=O)NC1=O` [compound 114] (HELM PEPTIDE1{[meR].S.D.T.L.[Pen].[O=C([C@H](Cc1ccc2ccccc2c1)N[*:1])[*:2]].[dE].[am]}|CHEM1{[O=C(c1ccccc1C[*:2])[*:1]]}$PEPTIDE1,CHEM1,1:R1-1:R1|PEPTIDE1,CHEM1,6:R3-1:R2$$$V2.0): 25 to 100 nM; `CC(C)C[C@@H]1NC(=O)[C@H]([C@@H](C)O)NC(=O)[C@H](CC(=O)O)NC(=O)[C@H](CO)NC(=O)[C@H](CCCNC(=N)N)N(C)C(=O)c2ccccc2CSC(C)(C)[C@@H](C(=O)N[C@@H](Cc2ccc3ccccc3c2)C(N)=O)NC1=O` [compound 116] (HELM PEPTIDE1{[meR].S.D.T.L.[Pen].[O=C([C@H](Cc1ccc2ccccc2c1)N[*:1])[*:2]].[am]}|CHEM1{[O=C(c1ccccc1C[*:2])[*:1]]}$PEPTIDE1,CHEM1,1:R1-1:R1|PEPTIDE1,CHEM1,6:R3-1:R2$$$V2.0): 25 to 100 nM.
For `CC(C)C[C@@H]1NC(=O)[C@H]([C@@H](C)O)NC(=O)[C@H](CC(=O)O)NC(=O)[C@H](CO)NC(=O)[C@H](CCCNC(=N)N)N(C)C(=O)c2ccccc2CSC(C)(C)[C@@H](C(=O)N[C@@H](Cc2ccc(-c3ccccc3)cc2)C(=O)N[C@@H](CCC(=O)O)CC(N)=O)NC1=O` [compound 133] ([NMeR]SDTL[Pen][Bip][β3hE]-NH2; linker N-6 via X1), the IC50 was less than 25 nM.
